Reference: patent publication EP0366632A1, “Alternative energy substrates” (priority 1988, dated 1990)

Experiments:
[1] = tested on: Escherichia coli ATCC 8739; assay: Microorganism count in ester emulsions diluted with phosphate buffer, albumin solution or TSB (Example 16); type: cell-based
Description: The emulsions contained egg-yolk phospholipid 1,2% and sterile water in addition to ester. The emulsions were prepared aseptically, by emulsifying sterile-filtered ester with a sterilized dispersion of egg-yolk phospholipids.
Aliquots of these emulsions were diluted at a ratio of 1 to 10 with phosphate buffer (0.01 M, pH=7.0), seruma albumin solution 20% and Tryptone soya broth (TSB) respectively. Escherichia coli ATCC 8739 were added to the emulsions. The emulsions were then incubated for 20 hours at +37°C. The microorganism count was carried out after 1-5 minutes, 2 hours and 20 hours, in the manner described in microbiological literature. Parallel with the above tests, there was made a control of phosphate buffer and TSB with additions of Escherichia coli ATCC 8739. The latter substrate was tested to ascertain whether or not the microorganisms were viable. […] The starting concentration was about 10⁴. In the samples containing 4-methyl-3-oxo-pentanoic acid ethyl ester, the combination with phosphate buffer was 0 after 5 minutes, 0 after 2 hours and 0 after 20 hours. In the combination with 20% albumin solution, the microorganism count was 0 after 5 minutes, no count was taken after 2 hours, and 0 after 20 hours. […], the count in the combination with TSB was 0, no count was taken after 2 hours, and 0 after 20 hours.
In the samples containing 5-methyl-3-oxo-hexanoic acid ethyl ester, the count in the combination with phosphate buffer was 10 after 5 minutes, 0 after 2 hours, and 0 after 20 hours. The combination with 20% albumin solution was 10² after 5 minutes, no count was taken after 2 hours, and 0 after 20 hours. In the combination with TSB, the count was 10 after 5 minutes, no count was taken after 2 hours, and 0 after 20 hours. […] All microorganisms were eliminated within 20 hours by both esters at the same low concentration.

[2] = tested on: Candida albicans ATCC 10231; assay: Microorganism count in 2% and 0.2% ester emulsions (Example 15); type: cell-based; conditions: after 20 hours
Description: The emulsions contained egg-yolk phospholipid 1,2% and sterile water, in addition to ester. The emulsions were prepared aseptically, by emulsifying sterile-filtered ester with a sterilized dispersion of egg-yolk phospholipids.
Aliquots of these emulsions were diluted with phosphate buffer (0.01 M, pH=7.0) in the proportions of 1 and 10 and 1 and 100 of respective emulsions. Candida albicans ATCC 10231 was added to the emulsions. The samples were then incubated at +37°C for 20 hours. The microorganism count was carried out after […], 2 and 20 hours, in the manner described in microbiological literature. Parallel with the above tests, a check was made on phospholipide solution 1,2% and TSB (Tryptone soya broth) with additions Candida albicans ATCC 10231. The latter substrate was tested to ascertain whether or not the microorganisms were viable. After 20 hours, the microorganism count/ml in TSB was 10⁷, and in the phospholipid solution 10⁴. The starting concentration was about 10⁴. After 1-5 minutes, the microorganism count per […] of the tests containing 4-methyl-3-oxo-pentanoic acid ethyl ester with concentrations of 2% and 0.2% was 10⁴ and 10⁴ respectively. After 2 hours, the microorganism count was 10² and 10⁴ respectively, and after 20 hours 0 and 10⁴. […] After 20 hours, the count was 0 and 10² respectively.

[3] = 20% emulsion diluted 1 to 10 with phosphate buffer, after 5 minutes, starting concentration about 10⁴
[4] = diluted 1 to 10 with 20% albumin solution, after 20 hours
[5] = diluted 1 to 10 with TSB, after 20 hours
[6] = diluted 1 to 10 with phosphate buffer, after 2 hours
[7] = diluted 1 to 10 with phosphate buffer, after 20 hours

Measured: microorganism count

CCOC(=O)CC(=O)C(C)C [4-methyl-3-oxo-pentanoic acid ethyl ester]
0 per ml: [2]
0: [1]; [3] | [1]; diluted 1 to 10 with 20% albumin solution, after 5 minutes | [1]; [4] | [1]; diluted 1 to 10 with TSB, after 4 hours | [1]; [5] | [1]; [6] | [1]; [7]

CCOC(=O)CC(=O)CC(C)C [5-methyl-3-oxo-hexanoic acid ethyl ester]
0 per ml: [2]
10: [1]; [3] | [1]; diluted 1 to 10 with TSB, after 5 minutes
0: [1]; [4] | [1]; [5] | [1]; [6] | [1]; [7]
